Assay results taken from the CheMixHub drug solubility set.

Experiment: xn = mol fraction of the nth substance listed, in the solute-free solvent

CCOC(=O)C1=CC2(CC)CCCN3CCc4c(n1c1ccccc41)C32 (stereo not drawn) + CCO + O
solubility (g/100 g solution)
Conditions | 283.15 K | 288.15 K | 293.15 K | 298.15 K | 303.15 K | 308.15 K | 313.15 K | 318.15 K | 323.15 K
x2 = 0.2 | 0.00578 | 0.00816 | 0.0113 | 0.0153 | 0.0208 | 0.028 | 0.0375 | 0.0513 | 0.0683
x2 = 0.3 | 0.0454 | 0.0591 | 0.0768 | 0.0954 | 0.12 | 0.153 | 0.185 | 0.238 | 0.304
x2 = 0.4 | 0.106 | 0.138 | 0.178 | 0.211 | 0.277 | 0.346 | 0.421 | 0.524 | 0.668
x2 = 0.5 | 0.184 | 0.235 | 0.301 | 0.37 | 0.468 | 0.586 | 0.726 | 0.921 | 1.12
x2 = 0.6 | 0.257 | 0.331 | 0.43 | 0.52 | 0.639 | 0.824 | 0.996 | 1.25 | 1.54
x2 = 0.7 | 0.335 | 0.418 | 0.546 | 0.661 | 0.831 | 1.04 | 1.3 | 1.61 | 1.97
x2 = 0.8 | 0.372 | 0.479 | 0.612 | 0.757 | 0.941 | 1.21 | 1.47 | 1.87 | 2.26
x2 = 0.9 | 0.363 | 0.466 | 0.609 | 0.766 | 0.951 | 1.23 | 1.5 | 1.94 | 2.39

CN1CCN(C(=O)OC2c3nccnc3C(=O)N2c2ccc(Cl)cn2)CC1 (stereo not drawn) + CCO + O
solubility (g/100 g solution)
Conditions | x2 = 0.3 | x2 = 0.4 | x2 = 0.5 | x2 = 0.6 | x2 = 0.7 | x2 = 0.8 | x2 = 0.9
288.15 K | 0.129 | 0.242 | 0.377 | 0.527 | 0.59 | 0.511 | 0.375
298.15 K | 0.208 | 0.397 | 0.63 | 0.85 | 0.998 | 0.9 | 0.647
308.15 K | 0.296 | 0.666 | 1.02 | 1.32 | 1.43 | 1.3 | 0.911
318.15 K | 0.474 | 0.988 | 1.51 | 2.03 | 2.31 | 2.12 | 1.53
328.15 K | 0.818 | 1.65 | 2.51 | 3.27 | 3.65 | 3.31 | 2.53

O=[N+]([O-])c1cc[nH]n1 + CCO + O
solubility (g/100 g solution)
Conditions | 283.15 K | 288.15 K | 293.15 K | 298.15 K | 303.15 K | 308.15 K | 313.15 K | 318.15 K | 323.15 K
x2 = 0.04165 | 0.265 | 0.347 | 0.44 | 0.528 | 0.709 | 0.854 | 1.16 | 1.49 | 1.89
x2 = 0.08908 | 0.319 | 0.385 | 0.478 | 0.581 | 0.718 | 0.87 | 1.15 | 1.44 | 1.83
x2 = 0.1436 | 0.409 | 0.521 | 0.689 | 0.942 | 1.16 | 1.49 | 1.89 | 2.41 | 3.08
x2 = 0.2068 | 0.482 | 0.6 | 0.75 | 0.956 | 1.18 | 1.48 | 1.87 | 2.34 | 2.97
x2 = 0.2812 | 0.53 | 0.639 | 0.777 | 0.962 | 1.16 | 1.46 | 1.8 | 2.24 | 2.82
x2 = 0.3698 | 1 | 1.2 | 1.45 | 1.71 | 2.08 | 2.5 | 3.05 | 3.86 | 4.83
x2 = 0.4772 | 1.69 | 1.98 | 2.32 | 2.72 | 3.26 | 3.87 | 4.68 | 5.83 | 7.1
x2 = 0.6101 | 2.68 | 3.06 | 3.52 | 4.09 | 4.83 | 5.64 | 6.66 | 8.11 | 9.68
x2 = 0.7788 | 3.98 | 4.51 | 5.09 | 5.8 | 6.58 | 7.79 | 9.11 | 10.7 | 12.4
